In patent US9221900B2, “Methods for identifying safe and functional humanized antibodies” (AC IMMUNE S.A., priority 2010, dated 2015):

Experiments:
[1] = tested on: human Fcγ receptors (FcγRIa, FcγRIIa, FcγRIIb, FcγRIIIa); assay: FcγR binding ELISA, panel of human Fcγ receptors; conditions: cross-linked antibody
Procedure: FIG. 10 provides graphs and immunocytochemical images corresponding to the experiments described in Example 6.5. […] These findings are consistent with published data for human IgG4 antibodies (Gessner et al., 1998) and IgG1 antibodies carrying the D265A mutation (Shields et al., 2001).
(§1) The binding of test antibodies to a panel of human Fcγ receptors (FcγRs) was measured using enzyme-linked immunosorbent assay (ELISA). Human FcγRs (Genentech, Inc., CA) are fusion proteins containing the extracellular domain of the receptor γ-chain with a Gly/6xHis/glutathione S transferase (GST) polypeptide tag at the C terminus. A monoclonal antibody with human IgG1 framework was used as the positive control (IgG1 control) in this experiment. Plates were coated with a mouse monoclonal anti GST antibody (Genentech, Inc.) in a 0.05 M sodium carbonate buffer (pH 9.6) overnight at 4° C. After blocking with an assay buffer containing phosphate buffered saline (PBS), 0.5% BSA, and 0.05% Tween-20, the plates were incubated with FcγRs at room temperature for 1 h. Human FcγRs were immobilized to the plate via interaction with the anti-GST coating. […] Diluted samples were applied as monomeric forms for the high affinity receptor (FcγRIa), or multimeric forms for the low affinity receptors (FcγRIIa, FcγRIIb, and FcγRIIIa). The multimeric forms of test antibodies were generated by cross linking F(ab′)2 fragment of goat anti human κ-chain (MP Biomedicals, Solon, Ohio), with test monoclonal antibody at an approximate molar ratio of 3:1. The plates were incubated with FcγRs at room temperature for 2 h. […] The antibodies bound to the FcγRs were detected with horseradish peroxidase (HRP)-conjugated F(ab′)2 fragment of goat anti human F(ab′)2 (Jackson ImmunoResearch Laboratories; West Grove, Pa.). […] The reaction was terminated with 1 M H3PO4, and absorbance at 450 nm with reference at 650 nm was measured on a plate reader (Molecular Devices, Sunnyvale, Calif.). Binding curves were generated by plotting the mean absorbance values from duplicates of sample dilutions against the respective sample […].

[2] = tested on: mixed cortical cells from P1 rats; assay: Aβ1-42 oligomer cytotoxicity assay, MTT readout; format: cell-based, rat
Procedure: FIG. 2 provides graphs and immunocytochemical images corresponding to the experiments described in Example 6.3. […] An MTT assay was used to determine cell viability as described in the Methods section. The means (±SEM) of five independent experiments are shown. *P<0.05, **P<0.01. […] Neurotoxicity following extended Aβ1-42 oligomer treatment was tested by morphological analyses (C).
A non-specific IgG monoclonal antibody was used as a control in all experiments.
Rat primary cortical cultures were prepared from Sprague-Dawley rats (Charles River Laboratories L'Arbresle, France) at post-natal day 1, as described by Meberg and Miller (Meberg and Miller, 2003). Cerebellum and meninges were removed, and cortices were cut into small pieces and dissociated with enzymatic disruption at 37° C. in dissociation buffer (papaine, CaCl2, EDTA, and HEPES; all from Invitrogen, Carlsbad, Calif.). DNase (Invitrogen) was added for 10 min. Following dissociation, dispersed cortical neurons were plated onto poly-L-lysine (0.01%; mol. wt 150,000-300,000; Sigma) coated 6-well, 24-well, or 96-well tissue culture plates. For immunocytochemistry, cells were grown on coated glass coverslips, into 24-well plates. Cells were maintained in Neurobasal media (Invitrogen) without phenol-red, with the addition of L-glutamine (2 mM; Sigma), B27 supplement (Invitrogen), and penicillin/streptomycin (Sigma) in a humidified incubator at 37° C. and 5% CO2. Following 1 h and 30 min in culture, the media was replaced with astrocyte-conditioned medium. After a further 4 days in culture, cell proliferation was blocked by treatment with cytosine arabinoside (Ara-C) at 2.5 μM (Invitrogen). Under these culture conditions, 20% of cells were identified as neurons by NeuN/DAPI staining (not shown). Experiments using mixed cortical cultures were generally performed at days-in-vitro (“DIV”) 6 unless stated otherwise. Enriched microglia prepared from cortex and hippocampus were harvested as described for cortical cultures above. Cortex and hippocampus were put in DMEM containing high glucose and homogenized by pipetting with a 10 mL pipette and then with a syringe. The homogenate was centrifuged for 3 min at 1,000×g, and then resuspended in pre-warmed DMEM containing high glucose containing 10% FCS and penicillin/streptomycin (microglia media). The cell suspension was next transferred to a T75 tissue-culture flask and kept in a humidified incubator at 37° C. and 5% CO2 for 1 week. The flask was shaken to separate microglia from adherent cells, and collected and washed in DMEM. The resulting cells were resuspended in 1 mL microglia media, counted, and plated at 5×10^4 cells/well. To verify microglial enrichment, cells were stained with the astroglial and microglial markers GFAP and Iba1, respectively. Greater than 60% of cells stained positive for Iba1, with no cells staining for both GFAP and Iba1. Pure microglia were prepared from post-natal day 3 CX3CR1-GFP mice (Jackson Laboratories). Cortex and hippocampus were dissected and triturated in DMEM containing high glucose using a 10 mL pipette, and then with an 18 gauge needle. The homogenate was centrifuged for 3 min at 1,000 g, and then resuspended in pre-warmed DMEM containing high glucose, 10% FBS and penicillin/streptomycin (microglia media). The cell suspension was next transferred to a T75 tissue-culture flask and kept in a humidified incubator at 37° C. and 5% CO2 for 7-10 d. Microglia were isolated by shaking, collected and washed in DMEM. The resulting cells were resuspended in 1 mL microglia media, counted, and plated on tissue culture treated glass chamber slides at 5×10^4 cells/well for use in experiments.
The cytotoxicity of Aβ1-42 oligomers was tested on mixed cortical cultures at DIV 5. All antibodies, at a final concentration of 100 μg/mL, were co-incubated with Aβ1-42 oligomers for 30 min in serum-free cell culture medium at 37° C. before treatment of cells. […]

microglia = assay: Confocal imaging of microglial uptake of Aβ1-42 oligomers; format: cell-based, rat; conditions: primary cortical microglia
Procedure: Aβ1-42 oligomers are shown in red, and blue is DAPI staining of DNA to show the microglia itself (A). An apical-to-distal slice was obtained from a three-dimensional image rendered from Z-stacks. Confocal imaging was performed on mixed cortical cells labeled for Aβ (red) and stained with DAPI (blue) as described in the Example Section under Materials and Methods. Microglia were identified and scanned for the maximum fluorescence intensity through a series of confocal stacks representing intracellular locations (B), and the total area of fluorescent signal above a minimum threshold was quantified (C). Each mark on the graph represents the total area of Aβ stained within a single cell. A minimum of 20 cells were analyzed for each treatment condition. Data were compared using one-way ANOVA followed by Tukey post-hoc multiple comparison. Means (±SEM) are shown. […] Red is Iba1 staining, green is HyLite Fluor-488-labeled Aβ1 42, and blue is DAPI staining. […] Statistical analysis was done using one-way ANOVA followed by Tukey post-hoc multiple comparison.
Cells were grown on a glass coverslips. Following treatment, cells were quickly washed with PBS and then fixed with 4% paraformaldehyde for 20 min. After thorough washes, cells were immersed in 100% methanol for 10 min at −20° C. They were then washed again and incubated in a blocking solution, PBS containing 10% normal goat serum for 1 h at room temperature. After an overnight incubation with the primary antibody, cells were washed and incubated for 2 h with the secondary antibody, then washed and mounted on glass slides using ProLong Gold antifade reagent (Invitrogen). Epifluorescence and confocal images were acquired on a LSM 700 inverted microscope from Zeiss, using a 63× lens. Fluorescence intensity was measured in cell bodies delineated by saturated epifluorescence pictures. Z-stacks were rendered into a three-dimensional image using ImageJ 1.42 (National Institutes of Health, freeware) from which an apical to distal slice containing the labeled proteins was obtained. Cells treated with HyLite Fluor-488-tagged Aβ1-42 were treated in the same way except no primary or secondary antibodies were used to label for Aβ1-42.

FcγRIIIa-V158 = molecular target: T1, FcγRIIIa-V158 (Homo sapiens, UniProt P08637, F176V); assay: FcγR binding ELISA, FcγRIIIa-V158; conditions: cross-linked IgG mAb
T1 construct: fusion proteins containing the extracellular domain of the receptor γ-chain
Procedure: The ability of these different monoclonal antibody backbones to internalize Aβ1-42 oligomers into microglia was then compared using confocal imaging on Aβ1-42 oligomer treated primary cortical microglia. […] To verify that microglia are indeed the cells taking up Aβ1-42 complexed to monoclonal antibodies, the study was repeated using HiLyte Fluor-488 tagged Aβ1-42 and co-stained for the microglial marker Iba1.
as §1, with “FcγRIIIa).” for “FcγRIIIa). The multimeric forms of test antibodies were generated by cross linking F(ab′)2 fragment of goat anti human κ-chain (MP Biomedicals, Solon, Ohio), with test monoclonal antibody at an approximate molar ratio of 3:1. The plates were incubated with FcγRs at room temperature for 2 h.”

T1 sequence (P08637 17-208 F176V): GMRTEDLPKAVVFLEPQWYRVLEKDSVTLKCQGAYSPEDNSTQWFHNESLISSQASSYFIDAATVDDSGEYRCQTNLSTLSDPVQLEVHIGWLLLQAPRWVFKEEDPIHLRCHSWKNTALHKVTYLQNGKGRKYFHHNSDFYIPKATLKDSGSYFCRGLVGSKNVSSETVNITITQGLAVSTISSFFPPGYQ

- binding to FcγRIIIa-V158, hierarchy (FcγRIIIa-V158): MABT-IgG>MABT>MABT-IgG1-D265A
Substance: MABT-IgG1-D265A: same antigen binding sequences as MABT on human IgG1 backbone carrying a D265A mutation that dramatically reduces FcγR-binding
- binding to FcγRs [1]: substantially reduced binding to all the FcγRs
- antibody-mediated increase in MTT signal under p38MAPK inhibition ([2]; 10 μM Aβ1-42 oligomers, 100 μg/ml antibody, 1 μM SB239063, 24 h): no effect
- reversal of Aβ1-42 oligomer-mediated toxicity ([2]; mixed primary cortical cultures, different IgG backbones): only a non-significant trend towards reversal
- Aβ1-42 oligomer internalization into microglia, rank order (microglia): MABT-IgG1>MABT>MABT-IgG1-D265A
